{"source": "ChEMBL document CHEMBL1667783", "about": "(Bioorg Med Chem Lett, 2011)", "type_in_all_cases": "functional, cell-based", "key": {"HepG2": {"tested_on": "HepG2", "test": "Cytotoxicity against human HepG2 cells after 48 hrs by MTT assay", "details": "HepG2, 48 h"}, "MCF7": {"tested_on": "MCF7", "test": "Cytotoxicity against human MCF7 cells after 48 hrs by MTT assay", "details": "MCF7, 48 h"}, "HEp-2": {"tested_on": "HEp-2", "test": "Cytotoxicity against human Hep2 cells after 48 hrs by MTT assay", "details": "HEp-2, 48 h"}, "A-431": {"tested_on": "A-431", "test": "Cytotoxicity against human A431 cells after 48 hrs by MTT assay", "details": "A-431, 48 h"}, "SK-OV-3": {"tested_on": "SK-OV-3", "test": "Cytotoxicity against human SKOV3 cells after 48 hrs by MTT assay", "details": "SK-OV-3, 48 h"}, "HeLa": {"tested_on": "HeLa", "test": "Cytotoxicity against human HeLa cells after 48 hrs by MTT assay"}, "A549": {"tested_on": "A549", "test": "Cytotoxicity against human A549 cells after 48 hrs by MTT assay", "details": "A549, 48 h"}, "U-251": {"tested_on": "U-251", "test": "Cytotoxicity against human U251 cells after 48 hrs by MTT assay", "details": "U-251, 48 h"}}}
{"compound": "COc1cc(/C=C/C(=O)/C=C(O)/C=C/c2ccc(-n3ccc4ccccc43)c(OC)c2)ccc1-n1ccc2ccccc21", "values": [{"measurement": "IC50", "setting": "HepG2", "result": "> 100", "unit": "µM"}, {"measurement": "IC50", "setting": "MCF7", "result": "> 100", "unit": "µM"}, {"measurement": "IC50", "setting": "HEp-2", "result": "> 100", "unit": "µM"}, {"measurement": "IC50", "setting": "A-431", "result": "> 100", "unit": "µM"}, {"measurement": "IC50", "setting": "SK-OV-3", "result": "> 100", "unit": "µM"}, {"measurement": "IC50", "setting": "HeLa", "result": "> 100", "unit": "µM"}, {"measurement": "IC50", "setting": "A549", "result": "> 100", "unit": "µM"}]}
{"compound": "COc1cc(/C=C/C(=O)/C=C(O)/C=C/c2ccc(-n3ccnc3)c(OC)c2)ccc1-n1ccnc1", "values": [{"measurement": "IC50", "setting": "HepG2", "result": 82.5, "unit": "µM"}, {"measurement": "IC50", "setting": "MCF7", "result": "> 100", "unit": "µM"}, {"measurement": "IC50", "setting": "U-251", "result": 22, "unit": "µM"}, {"measurement": "IC50", "setting": "HEp-2", "result": "> 100", "unit": "µM"}, {"measurement": "IC50", "setting": "A-431", "result": 16.8, "unit": "µM"}, {"measurement": "IC50", "setting": "SK-OV-3", "result": 66.9, "unit": "µM"}, {"measurement": "IC50", "setting": "HeLa", "result": 45.4, "unit": "µM"}, {"measurement": "IC50", "setting": "A549", "result": "> 100", "unit": "µM"}]}
{"compound": "COc1cc(/C=C/C(=O)/C=C(O)/C=C/c2ccc(-n3cccn3)c(OC)c2)ccc1-n1cccn1", "values": [{"measurement": "IC50", "setting": "HepG2", "result": "> 100", "unit": "µM"}, {"measurement": "IC50", "setting": "MCF7", "result": "> 100", "unit": "µM"}, {"measurement": "IC50", "setting": "HEp-2", "result": "> 100", "unit": "µM"}, {"measurement": "IC50", "setting": "A-431", "result": "> 100", "unit": "µM"}, {"measurement": "IC50", "setting": "SK-OV-3", "result": "> 100", "unit": "µM"}, {"measurement": "IC50", "setting": "HeLa", "result": "> 100", "unit": "µM"}, {"measurement": "IC50", "setting": "A549", "result": "> 100", "unit": "µM"}]}
{"compound": "COc1cc(/C=C/C(=O)/C=C(O)/C=C/c2ccc(-n3cnc4ccccc43)c(OC)c2)ccc1-n1cnc2ccccc21", "values": [{"measurement": "IC50", "setting": "HepG2", "result": "> 100", "unit": "µM"}, {"measurement": "IC50", "setting": "MCF7", "result": "> 100", "unit": "µM"}, {"measurement": "IC50", "setting": "HEp-2", "result": "> 100", "unit": "µM"}, {"measurement": "IC50", "setting": "A-431", "result": "> 100", "unit": "µM"}, {"measurement": "IC50", "setting": "SK-OV-3", "result": "> 100", "unit": "µM"}, {"measurement": "IC50", "setting": "HeLa", "result": "> 100", "unit": "µM"}, {"measurement": "IC50", "setting": "A549", "result": "> 100", "unit": "µM"}]}
{"compound": "COc1cc(/C=C/C(=O)/C=C(O)/C=C/c2ccc(I)c(OC)c2)ccc1I", "values": [{"measurement": "IC50", "setting": "HepG2", "result": "> 100", "unit": "µM"}, {"measurement": "IC50", "setting": "MCF7", "result": "> 100", "unit": "µM"}, {"measurement": "IC50", "setting": "U-251", "result": "> 100", "unit": "µM"}, {"measurement": "IC50", "setting": "HEp-2", "result": "> 100", "unit": "µM"}, {"measurement": "IC50", "setting": "A-431", "result": "> 100", "unit": "µM"}, {"measurement": "IC50", "setting": "SK-OV-3", "result": "> 100", "unit": "µM"}, {"measurement": "IC50", "setting": "HeLa", "result": "> 100", "unit": "µM"}, {"measurement": "IC50", "setting": "A549", "result": "> 100", "unit": "µM"}]}
{"compound": "COc1cc(/C=C/C(=O)/C=C(O)/C=C/c2ccc(Br)c(OC)c2)ccc1Br", "values": [{"measurement": "IC50", "setting": "HepG2", "result": "> 100", "unit": "µM"}, {"measurement": "IC50", "setting": "MCF7", "result": "> 100", "unit": "µM"}, {"measurement": "IC50", "setting": "U-251", "result": 84.8, "unit": "µM"}, {"measurement": "IC50", "setting": "HEp-2", "result": "> 100", "unit": "µM"}, {"measurement": "IC50", "setting": "A-431", "result": 55.9, "unit": "µM"}, {"measurement": "IC50", "setting": "SK-OV-3", "result": "> 100", "unit": "µM"}, {"measurement": "IC50", "setting": "HeLa", "result": "> 100", "unit": "µM"}, {"measurement": "IC50", "setting": "A549", "result": "> 100", "unit": "µM"}]}
{"compound": "COc1cc(/C=C/C(=O)/C=C(O)/C=C/c2ccc(N)c(OC)c2)ccc1N", "values": [{"measurement": "IC50", "setting": "HepG2", "result": "> 100", "unit": "µM"}, {"measurement": "IC50", "setting": "MCF7", "result": "> 100", "unit": "µM"}, {"measurement": "IC50", "setting": "U-251", "result": 24.5, "unit": "µM"}, {"measurement": "IC50", "setting": "HEp-2", "result": "> 100", "unit": "µM"}, {"measurement": "IC50", "setting": "A-431", "result": 15.8, "unit": "µM"}, {"measurement": "IC50", "setting": "SK-OV-3", "result": "> 100", "unit": "µM"}, {"measurement": "IC50", "setting": "HeLa", "result": "> 100", "unit": "µM"}, {"measurement": "IC50", "setting": "A549", "result": "> 100", "unit": "µM"}]}
{"compound": "COc1cc(/C=C/C(=O)/C=C(O)/C=C/c2ccc(NC(C)=O)c(OC)c2)ccc1NC(C)=O", "values": [{"measurement": "IC50", "setting": "HepG2", "result": 71.6, "unit": "µM"}, {"measurement": "IC50", "setting": "MCF7", "result": "> 100", "unit": "µM"}, {"measurement": "IC50", "setting": "U-251", "result": 7.1, "unit": "µM"}, {"measurement": "IC50", "setting": "HEp-2", "result": "> 100", "unit": "µM"}, {"measurement": "IC50", "setting": "A-431", "result": 7.2, "unit": "µM"}, {"measurement": "IC50", "setting": "SK-OV-3", "result": 55.5, "unit": "µM"}, {"measurement": "IC50", "setting": "HeLa", "result": 37.1, "unit": "µM"}, {"measurement": "IC50", "setting": "A549", "result": "> 100", "unit": "µM"}]}
{"compound": "CNc1ccc(/C=C/C(=O)/C=C(O)/C=C/c2ccc(NC)c(OC)c2)cc1OC", "values": [{"measurement": "IC50", "setting": "HepG2", "result": "> 100", "unit": "µM"}, {"measurement": "IC50", "setting": "MCF7", "result": "> 100", "unit": "µM"}, {"measurement": "IC50", "setting": "U-251", "result": "> 100", "unit": "µM"}, {"measurement": "IC50", "setting": "HEp-2", "result": "> 100", "unit": "µM"}, {"measurement": "IC50", "setting": "A-431", "result": "> 100", "unit": "µM"}, {"measurement": "IC50", "setting": "SK-OV-3", "result": "> 100", "unit": "µM"}, {"measurement": "IC50", "setting": "HeLa", "result": "> 100", "unit": "µM"}, {"measurement": "IC50", "setting": "A549", "result": "> 100", "unit": "µM"}]}
{"compound": "COc1cc(/C=C/C(=O)/C=C(O)/C=C/c2ccc(C(N)=O)c(OC)c2)ccc1C(N)=O", "values": [{"measurement": "IC50", "setting": "HepG2", "result": 43.6, "unit": "µM"}, {"measurement": "IC50", "setting": "MCF7", "result": 49.2, "unit": "µM"}, {"measurement": "IC50", "setting": "U-251", "result": 7.7, "unit": "µM"}, {"measurement": "IC50", "setting": "HEp-2", "result": "> 100", "unit": "µM"}, {"measurement": "IC50", "setting": "A-431", "result": 9.4, "unit": "µM"}, {"measurement": "IC50", "setting": "SK-OV-3", "result": 38.3, "unit": "µM"}, {"measurement": "IC50", "setting": "HeLa", "result": 23.8, "unit": "µM"}, {"measurement": "IC50", "setting": "A549", "result": "> 100", "unit": "µM"}]}
{"compound": "COc1cc(/C=C/C(=O)CC(=O)/C=C/c2ccc(O)c(OC)c2)ccc1O", "note": "[CURCUMIN]", "values": [{"measurement": "IC50", "setting": "HepG2", "result": 31.6, "unit": "µM"}, {"measurement": "IC50", "setting": "U-251", "result": 13.8, "unit": "µM"}, {"measurement": "IC50", "setting": "HEp-2", "result": 56.9, "unit": "µM"}, {"measurement": "IC50", "setting": "A-431", "result": 13.8, "unit": "µM"}, {"measurement": "IC50", "setting": "SK-OV-3", "result": 37.7, "unit": "µM"}, {"measurement": "IC50", "setting": "HeLa", "result": 27.4, "unit": "µM"}, {"measurement": "IC50", "setting": "A549", "result": 42.6, "unit": "µM"}]}
